Measured values taken from patent US7745636B2, “Hepatitis C virus inhibitors” (Bristol-Myers Squibb Company, priority 2006, dated 2010).
Read-outs that look alike come from different tables or passages of the source.

System: HCV 1b-377-neo replicon cells
Assay: HCV Replicon assay, HCV 1b-377-neo replicon cells
Format: cell-based, HCV 1b genotype
Conditions: Table 2, read-out: Range (EC50 against HCV 1b)

SMILES	EC50 (Hepatitis C virus)	EC50
COC(=O)N[C@H](C(=O)Nc1ncc(-c2ccc(-c3ccc(-c4cnc([C@@H]5CCCN5C(=O)[C@@H](NC(=O)OC)C(C)C)[nH]4)cc3)cc2)[nH]1)C(C)C [Example R33, (S)-2-methoxycarbonylamino-N-(5-(4′-(2-((S)-1-((S)-2-methoxycarbonylamino-3-methylbutanoyl)pyrrolidin-2-yl)-1H-imidazol-5-yl)biphenyl-4-yl)-1H-imidazol-2-yl)-3-methylbutanamide]	1 to 99 nM	–
COC(=O)N[C@H](C(=O)N[C@H](c1ncc(-c2ccc(-c3ccc(-c4cnc([C@@H]5CCCN5C(=O)[C@@H](NC(=O)OC)C(C)C)[nH]4)cc3)cc2)[nH]1)C(C)OCc1ccccc1)C(C)C (some centres unmarked) [Example R34]	0.001 to 0.999 nM	–
C[C@@H](OCc1ccccc1)[C@H](N)c1ncc(-c2ccc(-c3ccc(-c4cnc([C@@H]5CCCN5)[nH]4)cc3)cc2)[nH]1 [Example R35]	100 to 999 nM	–
COC(=O)NC(C(=O)Nc1ncc(-c2ccc(-c3ccc(-c4cnc([C@@H]5CCCN5C(O)[C@@H](NC(=O)OC)C(C)C)[nH]4)cc3)cc2)[nH]1)C(C)C (some centres unmarked) [Example R36]	0.001 to 0.999 nM	–
COC(=O)N[C@H](C(=O)N[C@H](c1nc(-c2ccc(-c3ccc(-c4c[nH]c(C5CCCN5C(=O)[C@@H](NC(=O)OC)[C@@H](C)OC)n4)cc3)cc2)c[nH]1)C(C)C)[C@@H](C)OC (some centres unmarked) [Example R37]	0.001 to 0.999 nM	–
O=C1N[C@H](C(=O)N2CCC[C@H]2c2ncc(-c3ccc(-c4ccc(-c5cnc([C@@H]6CCCN6C(=O)[C@@H]6CCOC(=O)N6)[nH]5)cc4)cc3)[nH]2)CCO1 [LS11]	–	1000 to 10000 nM
C=CCCOC(=O)N[C@H](C(=O)N1CCC[C@H]1c1ncc(-c2ccc(-c3ccc(-c4cnc([C@@H]5CCCN5C(=O)[C@@H](NC(=O)OCCC=C)C(C)C)[nH]4)cc3)cc2)[nH]1)C(C)C [LS16]	–	1 to 99 nM
CNCC(=O)N1CCC[C@H]1c1ncc(-c2ccc(-c3ccc(-c4cnc([C@@H]5CCCN5C(=O)[C@@H](NC(=O)OC)C(C)C)[nH]4)cc3)cc2)[nH]1 [LS20]	–	0.001 to 0.999 nM
COC(=O)N[C@H](C(=O)N1CCC[C@H]1c1ncc(-c2ccc(-c3ccc(-c4cnc([C@@H]5CCCN5C(=O)CNCc5ccccc5)[nH]4)cc3)cc2)[nH]1)C(C)C [LS22]	–	0.001 to 0.999 nM
COC(=O)N[C@H](C(=O)N1CCC[C@H]1c1ncc(-c2ccc(-c3ccc(-c4cnc([C@@H]5CCCN5C(=O)CNC(C)C)[nH]4)cc3)cc2)[nH]1)C(C)C [LS25]	–	0.001 to 0.999 nM
COC(=O)N[C@H](C(=O)N1CCC[C@H]1c1ncc(-c2ccc(-c3ccc(-c4cnc([C@@H]5CCCN5C(=O)CN(C(C)C)C(C)C)[nH]4)cc3)cc2)[nH]1)C(C)C [LS26]	–	0.001 to 0.999 nM
CC(C)[C@H](NC(=O)N(C)C)C(=O)O [OL-2]	–	0.001 to 0.999 nM
CC(C)[C@H](NC(=O)OCCF)C(=O)O [OL-4]	–	0.001 to 0.999 nM
CCC(CC)[C@H](NC(=O)OC)C(=O)O [OL-5]	–	0.001 to 0.999 nM
COC(=O)N[C@H](C(=O)N1CCC[C@H]1c1ncc(-c2ccc(-c3ccc(-c4cnc([C@@H]5CCCN5C(=O)[C@@H](Nc5ncccn5)C(C)C)[nH]4)cc3)cc2)[nH]1)C(C)C [cj-11, methyl ((1S)-2-methyl-1-(((2S)-2-(5-(4′-(2-((2S)-1-(N-2-pyrimidinyl-L-valyl)-2-pyrrolidinyl)-1H-imidazol-5-yl)-4-biphenylyl)-1H-imidazol-2-yl)-1-pyrrolidinyl)carbonyl)propyl)carbamate]	0.001 to 0.999 nM	–
COC(=O)N[C@H](C(=O)N1CCC[C@H]1c1ncc(-c2ccc(-c3ccc(-c4cnc([C@@H]5CCCN5C(=O)[C@@H](Nc5noc(N)n5)C(C)C)[nH]4)cc3)cc2)[nH]1)C(C)C [cj-16, methyl((1S)-1-(((2S)-2-(5-(4′-(2-((2S)-1-(N-(5-amino-1,2,4-oxadiazol-3-yl)-L-valyl)-2-pyrrolidinyl)-1H-imidazol-5-yl)-4-biphenylyl)-1H-imidazol-2-yl)-1-pyrrolidinyl)carbonyl)-2-methylpropyl)carbamate]	0.001 to 0.999 nM	–
COC(=O)N[C@H](C(=O)N1CCC[C@H]1c1ncc(-c2ccc(-c3ccc(-c4cnc([C@@H]5CCCN5C(=O)[C@@H](NC(=NC#N)N(C)C)C(C)C)[nH]4)cc3)cc2)[nH]1)C(C)C [cj-17, methyl ((1S)-1-(((2S)-2-(5-(4′-(2-((2S)-1-(N-(cyano(dimethyl)carbamimidoyl)-L-valyl)-2-pyrrolidinyl)-1H-imidazol-5-yl)-4-biphenylyl)-1H-imidazol-2-yl)-1-pyrrolidinyl)carbonyl)-2-methylpropyl)carbamate]	0.001 to 0.999 nM	–
